A melting point compilation (Tetko et al.; mined from patent text by program, amines drawn as free bases though some values may be those of a salt)

melting point | Structure (SMILES)
188 to 190 °C | CCOC(=O)c1cc2c(cn1)[nH]c1ccc(N)c(N3CCCCC3)c12
179 to 182 °C | Cc1cc(C)n(-c2ncc(C)c(Nc3ccc(Cl)cc3)n2)n1
214 to 216 °C | CS(=O)(=O)Nc1cc2oc(NC=O)cc(=O)c2cc1Oc1ccccc1
86 to 88 °C | COC(=O)C1=CC[C@H]2[C@@](C=O)(CCC3C(C)(C)CCC[C@@]32C)C(=O)C1 (some centres undefined)
195 to 197 °C | Fc1ccc(-n2nccc2NC2=NCCN2)cc1
222 to 225 °C | COc1ccc(Cn2cnc3c2CC(C(=O)O)N(C(=O)C(c2ccccc2)c2ccccc2)C3)cc1C (centres undefined)
124 to 127 °C | CS(=O)(=O)Nc1ccc(Sc2ccc([N+](=O)[O-])cc2)cc1Oc1ccc(F)cc1F
252 to 254 °C | O=C1Cc2c(cc3ccccc3c2Cl)C(c2ccccc2Cl)N1 (centres undefined)
92 to 93 °C | OCc1nccc(N2CCCCC2)n1
51 °C | CCOCCOc1ccc(CCNC(=O)/C=C/c2cccs2)cc1S(=O)(=O)NC(=S)NC
81 to 83 °C | COc1ccc(Oc2ccccc2NS(C)(=O)=O)cc1
144 to 146 °C | CCOc1ccc(Nc2ncccc2NS(=O)(=O)c2ccc(OC)cc2)cc1
81 °C | CCCc1c(OCCCOc2cc(N)c(Cl)cc2C)ccc(C(C)=O)c1O
171 to 172 °C | CCCCC(=O)c1c(-c2ccc3c(Br)c(O)ccc3c2)oc2ccccc12
174 to 175 °C | CCN(CC)S(=O)(=O)c1cc(O)c(N=Nc2c(C)nn(CC)c2O)c2ccccc12
213 to 216 °C | CCOC(=O)C1=C(C)NC(c2cscn2)=NC1c1ccc(O)cc1 (centres undefined)
86 to 89 °C | CCOC(=O)C1=C(COCC(O)CCO)NC(C)=C(C(=O)OC)C1c1cccc(Cl)c1Cl (centres undefined)
158 to 160 °C | O=C(O)COc1cccc2c1CCC(Cc1coc(C(c3ccccc3)c3ccccc3)n1)C2 (centres undefined)
212 to 215 °C | CC(C)n1nc(-c2cc(C(=O)O)c(=O)[nH]c2-c2ccccc2)ccc1=O
150 °C | COCCN1CCn2c1nc(C(=O)NCc1ccc(F)cc1)c(OCc1ccccc1)c2=O
129 to 132 °C | O=C1N(N2CCCCC2)c2ccccc2C1(Cc1ccnc(F)c1)c1ccccc1 (centres undefined)
204 to 206 °C | Clc1ncnc2c1ncn2-n1cccc1
203 to 205 °C | COc1ccc(NC(=O)c2c[nH]c3c2C(=O)CC(C)(C)C3)c(F)c1
49 to 50 °C | CCOC(=O)c1c(C)nn(-c2ccccn2)c1C

melting point | Structure (SMILES)
160 °C | Cc1cc(N(C)S(=O)(=O)c2cccs2)c2[nH]c(C3=NCC(CNC(=O)OCc4ccccc4)S3)cc2c1 (centres undefined)
181 to 184 °C | CC(C)(C)OC(=O)CN1C(=O)[C@@H](N2C(=O)c3ccccc3C2=O)CSc2ccccc21
236 to 237 °C | CCOC(=O)c1nc2scc(COCc3ccc(C#N)cc3)c2c(=O)[nH]1
140 to 142 °C | CCC(Oc1ccc(Cl)cc1)C(=O)OC1CC(O)C=C2C=CC(C)C(CCC3CC(O)CC(=O)O3)C21 (mixture of isomers)
120 to 121 °C | Cc1oc(-c2ccccc2)nc1COc1ccc(/C=C/C=C/C#N)cc1
197 to 198 °C | O=C1C(=O)c2ccc(-c3ccccc3)cc2C2=C1SCC1(CCN(Cc3ccc(F)cc3)CC1)O2
250 °C | CC(=O)N1c2ccc(-c3ccc(-c4nnn[nH]4)cc3)cc2C(Nc2ccc(Cl)cc2)CC1C (centres undefined)
70 to 72 °C | CN(C)c1cccc(C(=O)COc2cccc(Cl)c2)c1
64 to 70 °C | C#CCCCCCCCCCCCCCCCCCCCCO
176 to 177 °C | O=C1Nc2cccnc2N(C(=O)NCCN2CCC(CCCN3CCCCC3)CC2)c2cc(Cl)ccc21
46 to 48 °C | COCCOC/C(=C\S(=O)(=O)c1ccccc1)C(=O)OC(C)(C)C
252 to 254 °C | Cc1c(Cl)cccc1NC(=O)NCc1ccc2c(c1)CN(C1CCC(=O)NC1=O)C2=O (centres undefined)
94.3 °C | CCOCCn1c(NC2CCN(CCO)CC2)nc2cccnc21
70 to 73 °C | CSCC(C)C(=O)N(C)c1sc(-c2cccnc2)nc1Cl (centres undefined)
258 to 262 °C | CCn1cnc2c(N)nc(Cl)nc21
111 °C | COc1ccc2c(c1)C(C(=O)N(Cc1ccc(-n3ccnc3)cc1)c1ccc(C(C)C)cc1)CCC2 (centres undefined)
93 to 95 °C | C=Cc1cc(O[Si](C)(C)C(C)(C)C)cc2nc(-c3ccc(O[Si](C)(C)C(C)(C)C)c(F)c3)oc12
138 to 139 °C | Cc1ccc(-c2c(NS(=O)(=O)c3ccc(C(C)(C)COC4CCCCO4)cc3)ncnc2OCCOc2ncc(Br)cn2)cc1 (centres undefined)
123 to 125 °C | O=C(CCc1ccc2ccccc2c1)CC(=O)CCc1ccc2ccccc2c1
146 to 147 °C | CC(=O)Nc1cc(C(F)(F)F)ccc1S(=O)(=O)CC#N
144 to 146 °C | O=C(Cn1ccnc1)c1ccc(-c2ccncc2)cc1
109 °C | COc1cccc2c(Oc3cc(-n4c(=O)cc(C(F)(F)F)n(C)c4=O)c(F)cc3C#N)cccc12
128 to 130 °C | COc1cc2c(cc1OC)N(C(=O)OCc1ccccc1)C(C)CC2=O (centres undefined)
77 to 77.5 °C | Clc1ccc(-c2cnccn2)cc1

melting point | Structure (SMILES)
130 to 131 °C | CCOC(=O)C(C)(C(=O)OCC)c1cc(=O)n(Cc2ccccc2)c2ccccc12
90 to 92.5 °C | C=CCc1ccc(C(=O)CCC(=O)OC)cc1O
197 to 199 °C | CCC1(c2cccs2)OCC(=O)Nc2ccc(-c3ccc(F)c(C#N)c3)cc21 (centres undefined)
231 to 233 °C | c1ccc(-c2ccc(Nc3ncc(-c4ccccc4)s3)nc2)cc1
127 to 130 °C | Cc1c(-c2ccc(O)cc2)n(C(=O)c2ccc(OCCN3CCCCC3)cc2)c2ccc(O)cc12
100 °C | CCS(=O)(=O)CC=Cc1ccccc1
113 to 115 °C | O=C(O)c1cc(Cl)ccc1OCc1ccccc1
143 to 144 °C | CCN1C(=O)C(Cl)(Cl)c2cc3sccc3cc21
> 250 °C | Nc1ncc(C2CCN(c3ccc([N+](=O)[O-])cc3)CC2)c(N)n1
138 to 141 °C | Cc1ccc(CCC(CO)n2cnc(C(N)=O)c2)cc1 (centres undefined)
80 to 81 °C | CCCCS(=O)(=O)Nc1ccc(I)cc1
153 to 155 °C | OC(c1nc(-c2ccc(F)cc2)c(-c2ccc(F)cc2)[nH]1)(C(F)(F)F)C(F)(F)F
188 to 189 °C | CN1C(=O)C(NC(=O)Nc2ccccc2)N(C)C1=O (centres undefined)
197 to 200 °C | CCOc1nc2c(N)nc3cccnc3c2n1CC1CCOCC1
60.5 to 61.5 °C | C=CCON=C(CC)C1=C(OCc2ccccc2)CC(C)(C)CC1=O
160 to 162 °C | Cc1ccccc1-c1nc2c3ccccc3ccn2c1NC(C)c1ccccc1 (centres undefined)
103 °C | O=S(=O)(Cc1ccccc1Cl)c1nnc(C(F)(F)F)s1
111 to 113 °C | C[C@@H]1Cc2ccsc2[C@H](C)N1CCNC(=O)c1cccs1 (relative stereo)
252 to 255 °C | Cn1c2cc(C(O)CO)ccc2c2c3c(c(-c4ccccc4Cl)cc21)C(=O)NC3=O (centres undefined)
173 to 175 °C | Cc1cccc2c1ccc1c3occ(C)c3c(=O)oc21
111 to 113 °C | COC(=O)c1ccc(OCC2CC(=O)N(c3ccc(OS(C)(=O)=O)cc3)C2)cc1 (centres undefined)
70 to 72 °C | CC(=O)C=CCCc1ccc(OCc2ccccc2)cc1
129 to 130 °C | CC(C)(C)C1=C(c2cc3cc(O)ccc3o2)OCC1(C)C
104 to 105 °C | Cc1cnc(NCCCNc2ncc(Cc3ccc(C)nc3)c(=O)[nH]2)c(C)c1

melting point | Structure (SMILES)
332 to 334 °C | Cn1cc(C2=C(c3c4n(c5ccccc35)CCC(CNC=O)C4)C(=O)NC2=O)c2ccccc21 (centres undefined)
133 to 134 °C | CCOCC(=O)Nc1cccc(NC)c1C#N
210 to 212 °C | COCOCc1nc(N)c2ncc(O)nc2n1
118 to 119 °C | Cc1c(CNCC(C)C)[nH]c2c(C)c(NC(=O)c3ccc(OC[C@@H]4CCCO4)cc3)ccc12
184 °C | CN(C)CCNS(=O)(=O)c1cccc(NC(=O)c2cnn3c(C(F)F)cc(-c4ccc(C(F)(F)F)cc4)nc23)c1
154 to 158 °C | O=C(O)CCCCCCCC(=O)c1c(-c2ccc(O)cc2)sc2cc(O)ccc12
168 °C | CCCCOC(=O)n1c2ccccc2c2nc3ccccc3cc21
188 °C | CCOC(=O)NCCN1CCC(n2c(=O)[nH]c3cc(Cl)ccc32)CC1
89 to 90 °C | COC(=O)c1cc(OCc2nc(-c3ccccc3)sc2C)no1
185 to 187 °C | COc1ccc(-c2[nH]cnc2-c2cc(OC)c(Br)c(OC)c2)cc1O
218 to 220 °C | Cc1c(-c2ccc(C[C@H](NC(=O)c3c(F)cccc3C(F)(F)F)C(=O)O)cc2)c(=O)n(C)c(=O)n1C
178 to 179 °C | O=C1CCC(c2ccc(CCCCNC(=O)c3cccnc3)cc2)=NN1
258 to 260 °C | Cc1nc2ccc(F)cc2[nH]c1=O
140 to 141 °C | COc1ccc2c(c1)N(c1ccc(F)cc1)C(=O)C2(C)N (centres undefined)
47 to 48 °C | Cc1ccccc1-n1ccnc1SCCCO
144 to 146 °C | CCCN1C(=O)C2(c3ccccc3)CC(c3ccc([N+](=O)[O-])cc3)(C2)C1=O
226 to 238 °C | CCOC(=O)c1cnc2c(-c3ccc(Cc4cccc(OC)c4)c(OC)c3)cnn2c1O
105 to 106 °C | CN(C)C(=S)SC(C[N+](=O)[O-])c1ccccc1 (centres undefined)
218 to 222 °C | COC(=O)c1nn(Cc2cccc(O)c2)c2c1CCc1cc(OCc3cncnc3)ccc1-2
133 to 136 °C | CNc1nc2ccccc2cc1N
78 to 81 °C | CCON=Cc1cnnc2ccccc12
159 to 161 °C | CCN1C(=O)C(C)(C)C(=O)N(C)c2cc(CN(CCn3ccc4oc(C)cc4c3=O)Cc3cccnc3Cl)ccc21

Structure (SMILES) | melting point
CSc1nc2cccc3c2n1CC(N(C)C)C3 (centres undefined) | 84 to 86 °C
ClCc1nnc2n1-c1sc(Cl)cc1C(c1ccccc1Cl)=NC2 | 101 to 103 °C
NN1CCN(Cc2c[nH]c3ccccc23)CC1 | 147 to 149 °C
O=[N+]([O-])c1nccn1CC(O)CN1CC1 (centres undefined) | 118 to 120 °C
C=C(C(=O)OCC)c1cc(-c2cc3c(cc2C)C(C)(C)CCC3(C)C)ccc1OCOC | 100 to 101 °C
